Values of other authors, collected in patent US20190144909A1, “METHODS OF MODULATING BCKDH” (NESTEC S.A., priority 2016, published 2019).
“Also recorded” adds a separate entry of the source. Where two headings read alike, the source gives them in different places.

Assays:
[1] = system: branched-chain alpha-keto acid dehydrogenase E1 A subunit (BCKDHA)
[2] = system: branched-chain alpha-keto acid dehydrogenase E1 B subunit (BCKDHB)
[3] = system: branched-chain alpha-keto acid dehydrogenase kinase (BCKDH kinase)
BCKDH kinase = settings: Shimomura et al. (2006) J. Nutr. 136: 250S-253S
[4] = BCKDHA, Table 1b, from Comparative Toxicogenomics Database
[5] = BCKDH kinase, Table 2, from Comparative Toxicogenomics Database
[6] = BCKDHB, Table 1a, from Comparative Toxicogenomics Database

In the case of `Clc1cc2c(cc1Cl)Oc1cc(Cl)c(Cl)cc1O2`, the “Interaction Actions” value [1] is listed as “affects expression; also recorded: affects cotreatment/; also recorded: increases expression”, the “Interaction Actions” value [2] is listed as “affects expression” and the “Interaction Actions” value [3] is listed as “affects reaction/; also recorded: decreases expression; also recorded: affects expression”.
For `c1cc2ccc3ccc4ccc5cccc6c(c1)c2c3c4c56` [1,12-benzoperylene], the “Interaction Actions” value [1] is given as “increases expression”.
For `C#CC1(O)CC[C@H]2[C@@H]3C(O)C=C4CC(O)CC[C@]4(C)[C@H]3CC[C@@]21C` (stereo partly shown) [17-ethynyl-5-androstene-3,7,17-triol], the “Interaction Actions” value [1, 4] is listed as “affects binding”.
In the case of `CC(=O)Nc1ccc(O)cc1` [Acetaminophen, reference compound], the “Interaction Actions” value [1, 4] is given as “affects expression; also recorded: increases expression” and the “Interaction Actions” value [3, 5] is given as “affects expression”.
In the case of `Cl.N` [Ammonium Chloride], the “Interaction Actions” value [1] is given as “affects expression”, the “Interaction Actions” value [2] is given as “affects expression” and the “Interaction Actions” value [3] is given as “affects expression”.
In the case of `OC[C@H]1O[C@@H](Oc2ccc(O)cc2)[C@H](O)[C@@H](O)[C@@H]1O` [Arbutin], the “Interaction Actions” value [3, 5] is listed as “decreases expression”.
In the case of `CCNc1nc(Cl)nc(NC(C)C)n1` [Atrazine], the “Interaction Actions” value [1, 4] is given as “increases expression” and the “Interaction Actions” value [3, 5] is given as “decreases expression”.
For `c1ccc2c(c1)cc1ccc3cccc4ccc2c1c34` [Benzo(a)pyrene], the “Interaction Actions” value [2, 6] is listed as “affects expression/; also recorded: affects reaction; also recorded: increases expression”.
In the case of `CC(C)(c1ccc(O)cc1)c1ccc(O)cc1` [Bisphenol A], the “Interaction Actions” value [1, 4] is listed as “increases expression” and the “Interaction Actions” value [3, 5] is listed as “affects expression”.
In the case of `NC(=O)N1c2ccccc2C=Cc2ccccc21` [Carbamazepine, reference compound], the “Interaction Actions” value [1, 4] is given as “affects expression”.
For `ClC(Cl)(Cl)Cl` [Carbon Tetrachloride], the “Interaction Actions” value [1] is listed as “increases expression”.
In the case of `C=CC(=C)Cl` [Chloroprene], the “Interaction Actions” value [1] is listed as “increases expression”.
For `CC(C)(Oc1ccc(Cl)cc1)C(=O)O` [Clofibric Acid], the “Interaction Actions” value [3, 5] is listed as “affects cotreatment/; also recorded: affects expression”.
For `[Cl-].[Cl-].[Co+2]` [Cobaltous chloride], the “Interaction Actions” value [3] is listed as “decreases expression”.
In the case of `[Cu]` [Copper], the “Interaction Actions” value [3] is listed as “affects binding/; also recorded: decreases expression”.
For `O=C(NN=C1CCCCC1)C(=O)NN=C1CCCCC1` [Cuprizone, reference compound], the “Interaction Actions” value [2] is listed as “increases expression”.
For `CCCCOC(=O)c1ccccc1C(=O)OCCCC` [Dibutyl Phthalate], the “Interaction Actions” value [3, 5] is listed as “decreases expression”.
For `CCN(CC)N=O` [Diethylnitrosamine], the “Interaction Actions” value [2] is listed as “increases expression” and the “Interaction Actions” value [3] is listed as “affects cotreatment/; also recorded: affects expression”.
For `O=c1[nH]cc(F)c(=O)[nH]1` [Fluorouracil, reference compound], the “Interaction Actions” value [1, 4] is given as “affects expression”.
For `c1ccoc1` [Furan], the “Interaction Actions” value [1] is given as “affects binding”.
For `OO` [Hydrogen Peroxide], the “Interaction Actions” value [3, 5] is given as “affects expression”.
For `OCl` [Hypochlorous Acid], the “Interaction Actions” value [3, 5] is listed as “decreases expression”.
For `CNC1(c2ccccc2Cl)CCCCC1=O` (stereo not shown) [Ketamine, reference compound], the “Interaction Actions” value [1] is listed as “increases expression”.
In the case of `COCC(=O)O` [Methoxyacetic acid], the “Interaction Actions” value [3, 5] is listed as “affects expression”.
In the case of `[CH3][Hg][Cl]` [Methylmercuric chloride], the “Interaction Actions” value [1] is given as “increases expression” and the “Interaction Actions” value [2] is given as “increases expression”.
For `C[C@@H]1Cc2c(Cl)cc(C(=O)N[C@@H](Cc3ccccc3)C(=O)O)c(O)c2C(=O)O1` [Ochratoxin A], the “Interaction Actions” value [3] is given as “decreases expression”.
For `CC12CC1(C)C(=O)N(c1cc(Cl)cc(Cl)c1)C2=O` (stereo not shown) [Procymidone], the “Interaction Actions” value [3, 5] is given as “decreases expression”.
In the case of `[Na+].[Na+].[O]=[Cr](=[O])([O-])[O][Cr](=[O])(=[O])[O-]` [Sodium bichromate], the “Interaction Actions” value [3] is listed as “decreases expression”.
For `C/C=C(/C)C(=O)O[C@H]1C(C)=C2[C@H]([C@@H]1OC(=O)CCCCCCC)[C@@](C)(OC(C)=O)C[C@H](OC(=O)CCC)[C@@]1(O)[C@H]2OC(=O)[C@@]1(C)O` [Thapsigargin, reference compound], the “Interaction Actions” value [3, 5] is given as “decreases expression”.
In the case of `CC[C@@]1(O)C(=O)OCc2c1cc1n(c2=O)Cc2cc3c(CN(C)C)c(O)ccc3nc2-1` [Topotecan, reference compound], the “Interaction Actions” value [1, 4] is given as “affects response”.
In the case of `CCCC(CCC)C(=O)O` [Valproic Acid, reference compound], the “Interaction Actions” value [1, 4] is given as “affects expression”, the “Interaction Actions” value [2, 6] is given as “affects expression; also recorded: increases expression” and the “Interaction Actions” value [3, 5] is given as “affects expression”.
In the case of `CN[C@H](CC(C)C)C(=O)N[C@H]1C(=O)N[C@@H](CC(N)=O)C(=O)N[C@H]2C(=O)N[C@H]3C(=O)N[C@H](C(=O)N[C@H](C(=O)O)c4cc(O)cc(O)c4-c4cc3ccc4O)[C@H](O)c3ccc(c(Cl)c3)Oc3cc2cc(c3O[C@@H]2O[C@H](CO)[C@@H](O)[C@H](O)[C@H]2O[C@H]2C[C@](C)(N)[C@H](O)[C@H](C)O2)Oc2ccc(cc2Cl)[C@H]1O` [Vancomycin, reference compound], the “Interaction Actions” value [1] is given as “increases expression” and the “Interaction Actions” value [2] is given as “increases expression”.
For `C=CC1(C)OC(=O)N(c2cc(Cl)cc(Cl)c2)C1=O` (stereo not shown) [Vinclozolin], the “Interaction Actions” value [1, 4] is listed as “increases expression”.
In the case of `Cc1cccc(Nc2cc(Cl)nc(SCC(=O)O)n2)c1C` [pirinixic acid, reference compound], the “Interaction Actions” value [1, 4] is given as “increases expression” and the “Interaction Actions” value [2, 6] is given as “increases expression”.
For `CC(C)CC(Cl)C(=O)O` (stereo not drawn) [α-chloroisocaproic acid], the “inhibitor of BCKDH kinase” value (BCKDH kinase) is listed as “most potent known inhibitor of BCKDH kinase”.
In the case of `CC(C)CC(=O)C(=O)O` [α-ketoisocaproic acid], the “inhibitor of BCKDH kinase” value (BCKDH kinase) is given as “known physiological inhibitor of BCKDH kinase”.
In the case of Tunicamycin [reference compound], the “Interaction Actions” value [1] is listed as “increases expression” and the “Interaction Actions” value [3] is listed as “decreases expression”.
In the case of potassium chromate(VI), the “Interaction Actions” value [2] is given as “increases expression”.
